The target of assay [1] is T1, Alpha-1A adrenergic receptor (Rattus norvegicus, UniProt P43140).
T1 sequence (P43140 whole entry): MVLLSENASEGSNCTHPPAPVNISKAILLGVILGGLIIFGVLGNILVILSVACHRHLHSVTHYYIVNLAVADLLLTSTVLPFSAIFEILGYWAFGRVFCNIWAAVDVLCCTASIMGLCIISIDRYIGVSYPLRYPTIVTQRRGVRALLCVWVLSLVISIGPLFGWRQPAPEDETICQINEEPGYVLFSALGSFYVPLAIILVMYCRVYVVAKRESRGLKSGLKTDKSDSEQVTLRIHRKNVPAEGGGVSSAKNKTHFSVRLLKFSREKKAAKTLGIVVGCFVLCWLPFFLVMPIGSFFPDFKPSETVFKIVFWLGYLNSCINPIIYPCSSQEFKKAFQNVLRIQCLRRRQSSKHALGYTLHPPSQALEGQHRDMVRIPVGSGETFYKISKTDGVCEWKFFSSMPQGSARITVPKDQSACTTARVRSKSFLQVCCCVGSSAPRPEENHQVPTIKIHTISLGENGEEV
As to the kind of experiment: Binding affinity against isolated rat prostate using [3H]- prazosin. The format is tissue-based, Prostate gland.

Assay [2] deals with T2, Alpha-1B adrenergic receptor (Homo sapiens, UniProt P35368).
T2 sequence (P35368 whole entry): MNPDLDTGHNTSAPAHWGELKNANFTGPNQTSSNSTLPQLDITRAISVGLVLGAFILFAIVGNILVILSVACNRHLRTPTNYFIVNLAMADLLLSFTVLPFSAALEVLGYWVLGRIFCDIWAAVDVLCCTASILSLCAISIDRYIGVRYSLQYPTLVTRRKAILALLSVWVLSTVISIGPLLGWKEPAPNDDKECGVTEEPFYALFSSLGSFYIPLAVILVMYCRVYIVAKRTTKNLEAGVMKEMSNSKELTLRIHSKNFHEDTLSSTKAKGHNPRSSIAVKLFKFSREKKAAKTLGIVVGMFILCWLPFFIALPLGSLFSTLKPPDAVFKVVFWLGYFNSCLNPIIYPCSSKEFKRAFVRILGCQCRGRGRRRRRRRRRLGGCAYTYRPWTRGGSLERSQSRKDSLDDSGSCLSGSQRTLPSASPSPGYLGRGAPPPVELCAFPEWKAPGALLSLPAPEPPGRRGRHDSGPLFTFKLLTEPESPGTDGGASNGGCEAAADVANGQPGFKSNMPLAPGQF
As to the kind of experiment: Binding affinity against Alpha-1B adrenergic receptor (recombinant human receptor) using [3H]prazosin.

Assay [3] has as its target T3, Alpha-1A adrenergic receptor (Homo sapiens, UniProt P35348).
T3 sequence (P35348 whole entry): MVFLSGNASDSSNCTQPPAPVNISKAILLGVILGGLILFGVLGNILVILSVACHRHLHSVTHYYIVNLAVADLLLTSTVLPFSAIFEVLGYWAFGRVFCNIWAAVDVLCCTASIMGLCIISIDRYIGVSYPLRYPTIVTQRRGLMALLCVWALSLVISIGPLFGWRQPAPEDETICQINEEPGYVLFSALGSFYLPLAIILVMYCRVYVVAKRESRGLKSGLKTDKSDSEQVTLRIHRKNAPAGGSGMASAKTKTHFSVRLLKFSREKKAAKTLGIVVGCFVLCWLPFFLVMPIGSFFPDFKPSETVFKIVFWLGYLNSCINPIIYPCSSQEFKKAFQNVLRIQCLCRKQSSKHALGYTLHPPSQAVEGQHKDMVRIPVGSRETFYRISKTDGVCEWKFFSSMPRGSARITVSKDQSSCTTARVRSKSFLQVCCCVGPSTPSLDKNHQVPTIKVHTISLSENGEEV
As to the kind of experiment: Binding affinity against isolated human prostate using [3H]- prazosin. The assay is classed as tissue-based, Prostate gland.

The target in assay [4] is T4, Alpha-1D adrenergic receptor (Homo sapiens, UniProt P25100).
T4 sequence (P25100 whole entry): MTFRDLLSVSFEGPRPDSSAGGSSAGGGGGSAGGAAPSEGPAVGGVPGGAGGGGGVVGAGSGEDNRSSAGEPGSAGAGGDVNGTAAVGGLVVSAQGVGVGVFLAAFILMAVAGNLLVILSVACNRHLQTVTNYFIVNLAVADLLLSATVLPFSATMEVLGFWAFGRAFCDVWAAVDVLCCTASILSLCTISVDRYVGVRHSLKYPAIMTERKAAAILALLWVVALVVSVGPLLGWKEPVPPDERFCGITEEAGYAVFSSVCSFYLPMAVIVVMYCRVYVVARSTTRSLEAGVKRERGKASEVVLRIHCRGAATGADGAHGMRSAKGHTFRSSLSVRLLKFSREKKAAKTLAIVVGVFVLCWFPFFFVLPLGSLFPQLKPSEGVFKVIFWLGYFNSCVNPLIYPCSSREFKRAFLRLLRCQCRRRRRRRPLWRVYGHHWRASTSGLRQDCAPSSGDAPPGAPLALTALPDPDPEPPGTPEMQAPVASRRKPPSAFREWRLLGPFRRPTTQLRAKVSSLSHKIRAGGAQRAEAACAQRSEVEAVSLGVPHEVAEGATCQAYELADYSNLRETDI
The assay is described as follows: Binding affinity against Alpha-1D adrenergic receptor (recombinant human receptor) using [3H]-prazosin.

Assay [5] concerns the target T4, Alpha-1D adrenergic receptor. As to the kind of experiment: Binding affinity against isolated human aorta using [3H]- prazosin. The format is tissue-based.
The target of assay [6] is T3, Alpha-1A adrenergic receptor. As to the kind of experiment: Binding affinity against Alpha-1A adrenergic receptor (recombinant human receptor) using [3H]prazosin.
The species entered for the next assay is Rattus norvegicus. As to the kind of experiment: Antagonistic activity inhibiting phenylephrine induced contractions in isolated rat prostate. The format is functional, Prostate gland.

For the compound `COC(=O)C1=C(C)N=C(C)N(CCCCCN2CCC(c3ccccc3)(c3ccccc3)CC2)C1c1ccc(F)c(F)c1` (configuration not stated), the Ki worked out at 0.00097 µM in assay [1]; 0.1 µM in assay [2]; 0.00033 µM in assay [3]; 0.18 µM in assay [4]; 0.11 µM in assay [5]; 0.0004 µM in assay [6]. For the same compound, the Kb in the assay listed under Rattus norvegicus came to 0.06 µM.

The values are drawn from ChEMBL document CHEMBL1132111, “Design and synthesis of novel alpha(1)(a) adrenoceptor-selective antagonists. 4. Structure-activity relationship in the dihydropyrimidine series” (J Med Chem, 1999).
